ChEMBL document CHEMBL5523691, “SAR study of N'-(Salicylidene)heteroarenecarbohydrazides as promising antifungal agents” (Bioorg Med Chem, 2024)
≈ marks a conversion by molar mass, not a printed value. Calls of active or inactive are those of the source. The calls are words filed in the database; no cut-off is given here.

How the values were obtained:
[1] = test system: Cryptococcus neoformans; test: Antifungal activity against wild type Cryptococcus neoformans H99 assessed as inhibition of fungal growth incubated for 24 to 72 hrs by optical density based analysis; format: functional; settings: time 24-72 hrs
[2] = Cytotoxicity against human A549 cells assessed as cell killing measured after 24 to 48 hrs by MTT assay; format: toxicity, cell-based; settings: time 24-48 hrs, read-out: LD50 (the source's name)
[3] = test system: Cryptococcus neoformans; test: Fungistatic activity against wild type Cryptococcus neoformans H99 assessed as inhibition of fungal growth incubated for 12 to 48 hrs by time-kill assay; format: functional, organism-based; settings: time 12-48 hrs
[4] = Selectivity index, ratio of LD50 for human A549 cells to MIC80 for Cryptococcus neoformans H99; format: toxicity; settings: read-out: Selectivity Index
[5] = test system: Candida albicans; test: Antifungal activity against Candida albicans assessed as inhibition of fungal growth incubated for 24 to 72 hrs by optical density based analysis; format: functional; settings: time 24-72 hrs
[6] = test system: Cryptococcus neoformans; test: Fungicidal activity against wild type Cryptococcus neoformans H99 assessed as minimum concentration required to kill fungus measured after 24 hrs by time-kill assay; format: functional
[7] = test system: Cryptococcus neoformans; test: Fungicidal activity against wild type Cryptococcus neoformans H99 assessed as minimum concentration required to kill fungus measured after 48 hrs by time-kill assay; format: functional
[8] = test system: Cryptococcus neoformans; test: Synergistic antifungal activity against wild type Cryptococcus neoformans H99 assessed as fractional inhibitory concentration index in presence of fluconazole; format: functional
[9] = test system: Cryptococcus neoformans; test: Antifungal activity against wild type Cryptococcus neoformans H99 assessed as inhibition of fungal growth in presence of amphotericin B; format: functional
[10] = test system: Cryptococcus neoformans; test: Synergistic antifungal activity against wild type Cryptococcus neoformans H99 assessed as fractional inhibitory concentration index in presence of amphotericin B; format: functional
[11] = test system: Cryptococcus neoformans; test: Antifungal activity against wild type Cryptococcus neoformans H99 assessed as inhibition of fungal growth in presence of caspofungin; format: functional
[12] = test system: Cryptococcus neoformans; test: Antagonistic antifungal activity against wild type Cryptococcus neoformans H99 in presence of amphotericin B; format: functional, organism-based
[13] = test system: Cryptococcus neoformans; test: Antifungal activity against wild type Cryptococcus neoformans H99 assessed as inhibition of fungal growth in presence of fluconazole; format: functional
[14] = test system: Cryptococcus neoformans; test: Antagonistic antifungal activity against wild type Cryptococcus neoformans H99 in presence of fluconazole; format: functional, organism-based
[15] = test system: Cryptococcus neoformans; test: Synergistic antifungal activity against wild type Cryptococcus neoformans H99 assessed as fractional inhibitory concentration index in presence of caspofungin; format: functional
[16] = test system: Aspergillus fumigatus; test: Antifungal activity against Aspergillus fumigatus assessed as inhibition of fungal growth incubated for 24 to 72 hrs by optical density based analysis; format: functional; settings: time 24-72 hrs
[17] = test system: Cryptococcus neoformans; test: Antagonistic antifungal activity against wild type Cryptococcus neoformans H99 in presence of caspofungin; format: functional, organism-based
[18] = test system: Cryptococcus neoformans; test: Fungicidal activity against wild type Cryptococcus neoformans H99 assessed as minimum concentration required to kill fungus measured after 12 hrs by time-kill assay; format: functional

| Structure (SMILES) | MIC80 [1] [mg/L] | CC50 [2] [mg/L] | selectivity ratio [4] | other results |
| --- | --- | --- | --- | --- |
| O=C(N/N=C/c1c(O)ccc2ccccc12)c1ncc(Br)cn1 | 2 (≈ 5.39 µM) |  |  |  |
| O=C(N/N=C/c1cc(Br)cc(Br)c1O)c1ccc(Br)o1 | 0.06 (≈ 0.129 µM) | 16 (≈ 34.3 µM) | 267 | Activity [3]: Active |
| OC(Cn1cncn1)(Cn1cncn1)c1ccc(F)cc1F [FLUCONAZOLE] | 2 (≈ 6.53 µM) |  |  | MIC80 [5]: 1 mg/L (≈ 3.27 µM) |
| O=C(N/N=C/c1ccc(Br)cc1O)c1cc(Br)c(Br)o1 | 0.06 (≈ 0.129 µM) | 16 (≈ 34.3 µM) | 267 | Activity [3]: Active |
| O=C(N/N=C/c1cc(Br)cc(Br)c1O)c1ncc(Br)cn1 | 0.25 (≈ 0.522 µM) |  |  | Activity [3]: Active |
| O=C(N/N=C/c1cc(Br)ccc1O)c1ccc(C(F)(F)F)o1 | 2 (≈ 5.3 µM) |  |  |  |
| O=C(N/N=C/c1ccc(Br)cc1O)c1ncc(Br)cn1 | > 16 |  |  |  |
| O=C(N/N=C/c1c(O)ccc2ccccc12)c1cc(Br)c(Br)s1 | 16 (≈ 35.2 µM) |  |  |  |
| O=C(N/N=C/c1ccc(Br)cc1O)c1cccs1 | 4 (≈ 12.3 µM) |  |  |  |
| O=C(N/N=C/c1cc(Br)ccc1O)c1csc2ccccc12 | > 16 |  |  |  |
| O=C(N/N=C/c1cc(Br)ccc1O)c1ccc[nH]1 | 16 (≈ 51.9 µM) |  |  |  |
| O=C(N/N=C/c1cc(Br)ccc1O)c1cc(Br)c(Br)s1 | 0.12 (≈ 0.248 µM) | 32 (≈ 66.3 µM) | 267 | MFC100 [6]: 0.25 mg/L (≈ 0.518 µM) |
| O=C(N/N=C/c1c(O)ccc2ccccc12)c1ccco1 | > 16 |  |  |  |
| O=C(N/N=C/c1cc(Br)ccc1O)c1cc(Br)c(Br)o1 | 0.25 (≈ 0.535 µM) | 32 (≈ 68.5 µM) |  | MFC100 [7]: 0.5 mg/L (≈ 1.07 µM) |
| O=C(N/N=C/c1ccc(Br)cc1O)c1ccc[nH]1 | 2 (≈ 6.49 µM) |  |  |  |
| O=C(N/N=C/c1c(O)ccc2ccccc12)c1cc(Br)co1 | > 16 |  |  |  |
| O=C(N/N=C/c1ccc(Br)cc1O)c1cc(Br)c[nH]1 | 8 (≈ 20.7 µM) |  |  |  |
| O=C(N/N=C/c1cc(Br)ccc1O)c1ncc(Br)cn1 | > 16 |  |  |  |

| Structure (SMILES) | MIC80 [1] [mg/L] | CC50 [2] [mg/L] | selectivity ratio [4] | other results |
| --- | --- | --- | --- | --- |
| O=C(N/N=C/c1ccc(Br)cc1O)c1cc(Br)c(Br)s1 | 0.002 (≈ 0.00414 µM) | > 32 | > 533 | MFC100 [6]: 0.5 mg/L (≈ 1.04 µM); fractional inhibitory concentration index (FICI) [8]: 0.6; MIC80 [9]: 0.001 mg/L; MIC80 [5]: 0.125 mg/L (≈ 0.259 µM); fractional inhibitory concentration index (FICI) [10]: 0.78; MIC80 [11]: 0.001 mg/L; Activity [12]: inactive; MIC80 [13]: 0.001 mg/L; Activity [14]: inactive; fractional inhibitory concentration index (FICI) [15]: 0.78; MIC80 [16]: 0.06 mg/L (≈ 0.124 µM); Activity [17]: inactive |
| O=C(N/N=C/c1cc(Br)ccc1O)c1cc2cc(Br)ccc2cn1 | > 16 |  |  |  |
| O=C(N/N=C/c1cc(Br)cc(Br)c1O)c1cc(Br)c(Br)o1 | 0.12 (≈ 0.22 µM) | 16 (≈ 29.3 µM) | 133 | MFC100 [18]: 0.12 mg/L (≈ 0.22 µM) |
| O=C(N/N=C/c1cc(Br)ccc1O)c1ccc(C(F)(F)F)s1 | 0.007 (≈ 0.0178 µM) | 1 (≈ 2.54 µM) | 143 | MFC100 [6]: 0.25 mg/L (≈ 0.636 µM) |
| O=C(N/N=C/c1ccc(Br)cc1O)c1ccc(C(F)(F)F)s1 | 0.06 (≈ 0.153 µM) | 0.5 (≈ 1.27 µM) | 8.3 | MFC100 [6]: 0.5 mg/L (≈ 1.27 µM) |
| O=C(N/N=C/c1c(O)ccc2ccccc12)c1cc(Br)c(Br)o1 | 0.12 (≈ 0.274 µM) | 32 (≈ 73 µM) | 267 | Activity [3]: Active |
| O=C(N/N=C/c1c(O)ccc2ccccc12)c1cc(Br)c[nH]1 | > 16 |  |  |  |
| O=C(N/N=C/c1cc(Br)cc(Br)c1O)c1cc[nH]n1 | 4 (≈ 10.3 µM) |  |  |  |
| O=C(N/N=C/c1cc(Br)ccc1O)c1cncc(Br)c1 | 1 (≈ 2.51 µM) | 4 (≈ 10 µM) | 4 | Activity [3]: Active |
| O=C(N/N=C/c1c(O)ccc2ccccc12)c1cc[nH]n1 | 4 (≈ 14.3 µM) |  |  |  |
| O=C(N/N=C/c1cc(Br)cc(Br)c1O)c1cc2cc(Br)ccc2o1 | > 16 |  |  |  |
| O=C(N/N=C/c1cc(Br)cc(Br)c1O)c1cc2cc(Br)ccc2cn1 | > 16 |  |  |  |
| O=C(N/N=C/c1cc(Br)cc(Br)c1O)c1csc(Br)c1 | 0.12 (≈ 0.248 µM) | 16 (≈ 33.1 µM) | 133 | MFC100 [18]: 0.25 mg/L (≈ 0.518 µM) |
| O=C(N/N=C/c1cc(Br)cc(Br)c1O)c1ccc(C(F)(F)F)s1 | 0.06 (≈ 0.127 µM) | 1 (≈ 2.12 µM) | 16.6 | MFC100 [7]: 0.25 mg/L (≈ 0.53 µM) |
| O=C(N/N=C/c1c(O)ccc2ccccc12)c1ccc(Br)o1 | 0.12 (≈ 0.334 µM) | 32 (≈ 89.1 µM) | 267 | MFC100 [7]: 1 mg/L (≈ 2.78 µM) |
| O=C(N/N=C/c1cc(Br)cc(Br)c1O)c1ncc[nH]1 | 2 (≈ 5.15 µM) |  |  |  |
| O=C(N/N=C/c1cc(Br)ccc1O)c1ccco1 | 2 (≈ 6.47 µM) |  |  |  |
